Laboratory results reported in US5977144A (priority 1997, dated 1999).
“Also recorded” adds a separate entry of the source. Read-outs that look alike come from different tables or passages of the source.

Key:
PC12 cells [1] = type: cell-based; conditions: for neurite protection during NGF-deprivation (in words): 10 μM; for Neurite Counts: 10 μM (NGF 100 ng/ml), 4 days after removal of serum and NGF, mean±SEM, * p<0.05
Method: PC12 cell-culture methods were modified from Greene and Tischler (1976). Cells were plated at 30-40% confluence and grown in Dulbecco's Modified Eagle Medium containing 10% heat-inactivated horse serum, 5% fetal bovine serum, 100 units/ml penicillin, 100 μg/ml streptomycin and 0.5 mM 1-glutamine. Cultures were maintained at 37° C., […] /6% CO2 and 90-92% humidity in culture plates pre-coated with poly-1lysine (10 g/L). Cultures were maintained for 7 days in serum-supplemented medium to which 100 ng/ml rat 2.5S NGF was added at day 1. On day 7, conditioned medium was replaced serum-free medium containing specified drugs. Four days later, cell density was estimated using the NIH Image program version 1.47 and number of neurite-expressing cells counted manually in blind fashion as described previously (Martin et al., 1994). A Nikon inverted microscope (100× magnification) was attached to a Mac II computer via a monochrome video camera (Cohu, Inc., San Diego, Calif.). Four random areas were counted per plate and there were 4 plates per treatment group, unless otherwise indicated. Neurites were defined as processes at least 2× the length of the perikaryon. To assess the reliability of the image analyses, a reticle was used for direct quantification of cells in the same view as the one analyzed in random samples.
PC12 cells were differentiated for 1 week with NGF. Drugs were administered for the 4 day interval after removal of serum and NGF. Neuites were counted and expressed as the mean±SEM of at least 3 plates/group.

rat alpha4beta2 receptor [2] = target: T1, rat alpha4beta2 receptor (Rattus norvegicus, UniProt P09483+P12390); assay: Activation of alpha4beta2 receptors expressed in Xenopus oocytes; type: cell-based; conditions: read-out: alpha4beta2 activation: % response observed with 10 μM acetylcholine
T1 sequence (P09483 31-630): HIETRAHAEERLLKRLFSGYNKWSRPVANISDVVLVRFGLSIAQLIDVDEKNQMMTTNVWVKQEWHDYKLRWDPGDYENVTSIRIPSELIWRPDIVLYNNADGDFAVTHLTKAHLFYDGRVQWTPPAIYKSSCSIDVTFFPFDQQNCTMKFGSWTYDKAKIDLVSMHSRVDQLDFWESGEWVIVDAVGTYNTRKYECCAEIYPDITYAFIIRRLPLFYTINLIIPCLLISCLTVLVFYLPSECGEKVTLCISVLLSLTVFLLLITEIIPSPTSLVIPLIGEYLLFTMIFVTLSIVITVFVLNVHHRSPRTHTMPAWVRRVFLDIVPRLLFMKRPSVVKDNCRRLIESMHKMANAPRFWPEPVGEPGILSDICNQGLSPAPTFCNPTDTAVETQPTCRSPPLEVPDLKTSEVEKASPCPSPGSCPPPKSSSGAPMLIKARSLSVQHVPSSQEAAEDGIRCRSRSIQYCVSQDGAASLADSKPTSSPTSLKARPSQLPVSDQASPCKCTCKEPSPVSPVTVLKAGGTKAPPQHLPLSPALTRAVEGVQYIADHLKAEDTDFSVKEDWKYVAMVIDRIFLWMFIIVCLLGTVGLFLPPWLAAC
T1 sequence (P12390 25-500): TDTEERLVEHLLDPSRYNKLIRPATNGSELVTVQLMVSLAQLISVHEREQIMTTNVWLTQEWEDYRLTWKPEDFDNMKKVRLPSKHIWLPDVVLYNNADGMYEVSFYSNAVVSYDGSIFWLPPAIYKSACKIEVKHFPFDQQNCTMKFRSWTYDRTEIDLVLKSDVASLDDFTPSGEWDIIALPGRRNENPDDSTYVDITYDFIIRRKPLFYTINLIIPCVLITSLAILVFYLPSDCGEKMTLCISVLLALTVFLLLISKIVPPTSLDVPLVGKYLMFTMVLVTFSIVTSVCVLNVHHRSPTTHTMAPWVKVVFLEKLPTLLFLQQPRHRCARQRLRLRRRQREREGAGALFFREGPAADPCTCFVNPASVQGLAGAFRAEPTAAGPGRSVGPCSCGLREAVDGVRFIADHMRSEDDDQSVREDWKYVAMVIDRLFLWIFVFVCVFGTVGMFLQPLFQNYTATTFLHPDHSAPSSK

rat alpha4beta2 receptor [3] = target: T1, rat alpha4beta2 receptor; assay: as above; type: cell-based; conditions: Table 4; read-out: Oocytes Agonist α4
Method: FIG. 14A. Responses of α4β2 ACHR to 3-CA, 2-MeOCA or 4-MeOCA. Concentration-response relationships for the peak agonist activated currents of oocytes injected with RNA coding for rat α4β2 subunits. Responses are first expressed relative to the response to 10 μM ACh, applied 5 min before drug-application, then normalized to the maximum response obtainable with ACh so that a response of 1 represents full efficacy. The ratio between 10 μM ACh and maximum ACh response was determined in separate experiments.
(§1) Oocytes were prepared and recordings made as described previously (de Fiebre, et al., 1995). Frogs were anesthetized by submersion in 0.1% (3)-aminobenzoic acid ethyl ester and several lobes of the ovary surgically removed through a small incision in the abdomen wall. Oocytes were freed from the follicle cells by treatment with collagenase (in calcium-free Barth's solution: 88 mM NaCl, 1 mM KCl, 15 mM Hepes pH 7.6, 0.33 mM MgSO4, 0.1 mg/ml gentamicin sulfate) for 2 hr at room temperature and Stage 5 oocytes were isolated. Oocytes were rinsed and stored at 18° C. in Barth's saline (88 mM NaCl, 1 mM KCl, 15 mM Hepes pH 7.6, 0.3 mM Ca(NO3)2, 0.41 mM CaCl2, 0.82 mM MgSO4, 0.1 mg/ml gentamicin sulfate) before and after microinjection with RNA. Microinjection was conducted with a Drummond Scientific "Nanoject Variable" automatic injector. Oocytes were injected with a 50 nl solution of specified rat nicotinic subunit mRNA species (2-10 mg/ml; derived from the cDNA containing HIP 306 plasmid kindly provided by Dr. Jim Boulter, Salk Institute) and incubated 2-7 days at 18° C. before electrophysiological recording. electrophysiological recordings, oocytes were perfused in a Warner Instruments RC-8 recording chamber with a perfusion solution containing 115 mM NaCl, 2.5 mM KCl, 10 mM Hepes pH 7.2, 1.8 mM CaCl2 and 1 μM atropine to block muscarinic responses. Perfusion was continuous at a rate of 10 ml/min. Drags were diluted in perfusion solution and applied using a solenoid valve to switch from perfusion to drug solutions. Current responses to drug administration were studied under two electrode voltage clamp at a holding potential of -70 mV using a Dagan Corp. TEV-200 voltage clamp connected to a 386-SX IBM computer using a TL-1 DMA interface (Axon Instruments). Micropipettes were filled with 3 M KCl and had resistances of 0.5-2 MOhms. Drug responses are analyzed with PClamp software (Axon Instruments). Oocytes with resting potentials of less than -30 mV were rejected.

rat alpha7 receptor [4] = target: T2, rat alpha7 receptor (Rattus norvegicus, UniProt Q05941); assay: cell-based; design: Oocytes Antagonist: unit not given here; conditions: for IC50: ACh applied 5 min after compound, read-out: IC50, antagonism subsequent to agonist activity; for Oocytes Antagonist: Table 4; for alpha 7 antagonism: % of antagonism of acetylcholine administered after drug: xenopus oocytes
T2 sequence (Q05941 23-502): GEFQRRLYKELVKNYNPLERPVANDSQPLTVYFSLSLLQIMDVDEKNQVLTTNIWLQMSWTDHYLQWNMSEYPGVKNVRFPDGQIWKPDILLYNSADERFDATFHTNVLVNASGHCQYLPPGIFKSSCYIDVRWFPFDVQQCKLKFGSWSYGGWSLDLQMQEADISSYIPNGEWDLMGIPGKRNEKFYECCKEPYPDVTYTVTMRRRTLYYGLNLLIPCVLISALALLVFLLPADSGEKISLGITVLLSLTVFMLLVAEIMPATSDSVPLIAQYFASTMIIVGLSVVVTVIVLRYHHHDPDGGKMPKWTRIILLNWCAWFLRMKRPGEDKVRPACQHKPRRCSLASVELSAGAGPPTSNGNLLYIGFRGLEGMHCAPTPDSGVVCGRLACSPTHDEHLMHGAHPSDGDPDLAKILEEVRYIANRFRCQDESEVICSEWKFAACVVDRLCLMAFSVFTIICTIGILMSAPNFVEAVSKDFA
Method: FIG. 13B. Effects of chronic injections of DMXB or nicotine on high affinity [^3 H]ACh or [^125 I]α-bungarotoxin (BTX) binding in rat neocortices. Adult male rats were injected with saline vehicle, 1 mg/kg DMXB or 0.2 mg/kg nicotine (NIC) (IP) daily for 2 weeks. At that time, neocortices were removed and assayed for high affinity [^3 H]ACh or [^125 I]α-bungarotoxin binding as described in the text. […] Responses of rat α7 AChR to 3-CA, 2-MeOCA and 4-MeOCA. […] All responses are expressed relative to the oocyte-response to 500 μM ACh applied 5 min prior to the experimental agonist application.
as §1
(§2) Antagonist properties subsequent to agonist activity were measured as a decrease in responsiveness to ACh applied 5 min after compound-application, normalized to ACh application instead of the anabaseine-derivative (FIG. 13A AND FIG. 13B).

PC12 cells [5] = type: cell-based; conditions: Table 4
[6] = target: T3, alpha4beta2 receptor (cytisine binding, rat brain membranes) (Rattus norvegicus, UniProt P09483+P12390); assay: biochemical; conditions: 1 μM (Table 2); read-out: alpha4beta2 binding: % inhibition of cytistine binding
T3 construct: from tissue; host or cells: rat brain membranes
T3 sequence (P09483 31-630): as the sequence (P09483 31-630) above
T3 sequence (P12390 25-500): as the sequence (P12390 25-500) above
From the text: Further, the cinnamylidene-anabaseines displaced high affinity cytisine binding to rat brain membranes with lower affinity than other types of benzylidene-anabaseines. These observations are consistent with the cinnamylidene-anabaseines having some selectivity for alpha7 receptor subtypes over other types of nicotinic receptors, especially alpha4beta2 receptors, based on the types of receptors to which alpha-bungarotoxin and cytisine bind to in brain.

rat alpha7 receptor [7] = target: T2, rat alpha7 receptor; assay: cell-based; conditions: for α7 receptor activation (in words): oocyte expression system; for EC50: oocytes, read-out: α7 EC50
Method: FIG. 13A. Effects of chronic injections of DMXB or nicotine on high affinity [^3 H]ACh or [^125 I]α-bungarotoxin (BTX) binding in rat neocortices. Adult male rats were injected with saline vehicle, 1 mg/kg DMXB or 0.2 mg/kg nicotine (NIC) (IP) daily for 2 weeks. At that time, neocortices were removed and assayed for high affinity [^3 H]ACh or [^125 I]α-bungarotoxin binding as described in the text. […] Responses of rat α7 ACHR to 3-CA, 2-MeOCA and 4-MeOCA. Concentration-response relationships for the peak agonist activated currents of oocytes injected with RNA coding for the rat α7 subunit. All responses were initially measured relative to the individual oocyte-response to 500 μM ACh, applied 5 min prior to drug-application. Responses were normalized relative to the maximum response obtainable with ACh so that a response of 1 represents full efficacy. The ratio of 500 μM ACh control response to ACh maximum was taken from Papke et al., 1997.
as §1

rat alpha4beta2 receptor [8] = target: T1, rat alpha4beta2 receptor; assay: Antagonism of alpha4beta2 receptors in oocytes (residual inhibition of ACh response after drug); type: cell-based; conditions: xenopus oocytes
Method: as §1, with “Micropipettes were filled with 3 M KCl and had resistances of 0.5-2 MOhms.” left out, “Oocytes with resting potentials of less than -30 mV were rejected.” left out
as §2

[9] = target: alpha7 receptor (high affinity alpha-bungarotoxin binding, rat brain membranes) (Rattus norvegicus, UniProt Q05941); assay: biochemical; conditions: for IC50: rat brain membranes, read-out: IC50, [125I]α-bungarotoxin binding
alpha7 receptor (high affinity alpha-bungarotoxin binding, rat brain membranes), sequence (Q05941 23-502): as the sequence (Q05941 23-502) above

rat alpha7 receptor [10] = target: T2, rat alpha7 receptor; conditions: literature; cited from earlier work
[11] = system: animal models of learning and memory; conditions: animals; cited from earlier work
rat alpha7 receptor [12] = target: T2, rat alpha7 receptor; conditions: cited from earlier work
[13] = system: alpha7 nicotinic receptors
[14] = system: cholinesterase-staining cells in the nucleus basalis; conditions: rat, in vivo
Method: Passive avoidance behavior was measured in nucleus basalis lesioned rats after intraperitoneal (IP) injections of drugs (base weight) or 0.9% saline diluent. For lesions, male 5 month old Sprague Dawley rats were anesthetized with 30 mg/kg sodium pentobarbital (IP) and then infused bilaterally with 1 μl of 5 μg/μl ibotenic acid in phosphate buffered saline, pH 7.4, into the nucleus basalis as described previously (17). Infusion coordinates were anterior 7.0 mm, lateral 2.6 mm and vertical 6.5 mm according to Paxinos and Watson (Paxinos and Watson, 1986).
Histological assessments of the ibotenic acid placements in the nucleus basalis were made after behavioral measurements, using cholinesterase staining in formalin-fixed tissues.

[15] = Table 4, read-out: Oocytes Agonist α7
[16] = read-out: alpha7 activation: % response observed with 500 μM acetylcholine
[17] = 1 μM (Table 2), read-out: alpha7 binding: % inhibition of alphabungarotoxin binding
[18] = Table 4, read-out: Receptor Binding α7

Compound	neurite protection during NGF-deprivation (in words) (PC12 cells [1])	Neurite Counts (PC12 cells [1])	Emax (rat alpha4beta2 receptor [2])	Emax (rat alpha4beta2 receptor [3])	IC50 (rat alpha7 receptor [4])	Oocytes Antagonist (rat alpha7 receptor [4])	alpha 7 antagonism: % of antagonism of acetylcholine administered after drug (rat alpha7 receptor [4])	inhibition at 1 µM [6]	selectivity α7 over α4β2 (in words) (rat alpha7 receptor [7])	Emax (rat alpha7 receptor [7]; [15])	α7 receptor activation (in words) (rat alpha7 receptor [7])	EC50 (rat alpha7 receptor [7])	Emax (rat alpha7 receptor [7]; [16])	alpha4beta2 antagonism: % of antagonism of acetylcholine administered after drug (rat alpha4beta2 receptor [8])	inhibition at 1 µM [9, 17]	inhibition at 1 µM [9, 18]	IC50 [9]	further results
C(=C\c1ccccc1)/C=C1\CCCN=C1c1cccnc1 [3-CA, E,E-3-(Cinnamylidene)anabaseine]	neuroprotective against neurite-loss during NGF-deprivation; also recorded: protected against NGF-deprivation neurite loss; also recorded: exhibited cytoprotective activity; also recorded: effective	185 ± 19	< 3%	2.6%	15 ± 6 µM	.50	45	6.2%	selectively activate α7 receptors over α4β2	92%	fully efficaciously	3.2 ± 0.7 µM	92%	10	94.7%	94.7%	0.08 µM	inhibition of α7 receptors, estimated (rat alpha7 receptor [4]; 10 μM, estimated from oocyte results): less than 20%; inhibition at 10 µM (rat alpha7 receptor [4]; 10 μM, ACh application 5 min later, read-out: long term inhibition of α7 receptors): < 20%; PC12 Cyto. (PC12 cells [5]): +?
COc1ccc(/C=C/C=C2\CCCN=C2c2cccnc2)cc1 [4-MeOCA, E,E-3-(4-Methoxycinnamylidene)anabaseine]	Neither 2-MeOCA nor 4-MeOCA elicited neurite-protection	155 ± 23	< 2%	< 5%	5 ± 2.3 µM	.104	75	32%	selectively activate α7 receptors over α4β2	45%	fully efficaciously	15.9 ± 7.9 µM	45%	34	94.1%	94.1%	0.054 µM	times less potent (α7 activation) (rat alpha7 receptor [7]): 2-3 times
CN(C)c1ccc(/C=C/C=C2\CCCN=C2c2cccnc2)cc1 [DMAC, E,E-3-(4-dimethylaminocinnamylidene) anabaseine]	–	–	–	–	–	–	–	–	–	–	–	–	–	–	–	–	–	long term inhibition / antagonism of α7 receptors (in words) (rat alpha7 receptor [10]): long term inhibition of α7 receptors following activation; also recorded: potent antagonist activity; memory-related performance (in words) [11]: memory-enhancing activity in rodents; also recorded: effective in this behavioral paradigm; α7 agonist activity (in words) (rat alpha7 receptor [12]; background/literature): fully efficacious and potent α7 agonist; selectivity α7 over α4β2 / other nicotinic subtypes (in words) (rat alpha7 receptor [12]; literature): selectively activate α7 receptors over α4β2
CCO [ethanol]	–	–	–	–	–	–	–	–	–	–	–	–	–	–	–	–	–	antagonism of nicotinic receptors by ethanol (in words) [13]: alpha7 nicotinic receptors were sensitive to antagonism by ethanol while other receptor types were not affected
N[C@H](C(=O)O)c1cc(=O)[nH]o1 [ibotenic acid]	–	–	–	–	–	–	–	–	–	–	–	–	–	–	–	–	–	reduction of cholinesterase-staining cells in nucleus basalis [14]: over 80%
